A word on the pIC50: it is the IC50 on a negative log10 scale, so that one unit is a factor of ten.

pIC50: −log10 of the molar value. Bounds are passed on as bounds.

For test [1], the target named is T1, Full length DGKα (D21-10BG, SignalChem) (Homo sapiens, UniProt P23743).
T1 construct: Full length DGKα (D21-10BG, SignalChem); purchased SignalChem D21-10BG
The experiment in a line: Biochemical DGK IC50 assay (ADP-Glo, lipid micelle substrate), DGKα. The settings on record: 1 hour preincubation, 1 hour reaction, room temperature. The protocol: (§1) Enzymatic reactions of DGKζ, DGKα and DGKδ were performed using ADP-Glo assay with lipid micelle substrate. […] Full length DGKα (D21-10BG, SignalChem) and full length DGKδ (D23-10G, SignalChem) were purchased. Lipid micelle was prepared by dissolving DAG (Sigma, 317505-10 MG) and PS (Sigma, P7769-100 MG) with chloroform which was furtherly removed by rotary evaporation. The obtained residue was resuspended in buffer containing 25 mM HEPES pH 7.0, 0.5 mM EDTA and 160 mM Octyl β-D glucopyranoside by vigorous mixing and ultrasonic (IID, Scientz).
(§2) The inhibition activities testing for the compound disclosed herein were carried out at room temperature in assay buffer containing 50 mM HEPES, 10 mM MgCl2, 0.01% BSA, 0.1 mM Na3VO4, 0.005% Tween-20 and 0.01 mM CaCl2). Compounds in DMSO were dispensed into wells of a black 384 well plate (Corning 4514) using D300e digital dispenser (Tecan). […] 3 μL 2× enzyme solution was added to wells. […] After 1 hour reaction, 5 μL ADP-Glo reagent (Promga V9101) was added and incubated for 40 minutes. 10 μL Kinase Detection reagent was added and incubated for 30 minutes. Luminescence was measured on a microplate reader (PHERAstar FSX, BMG labtech). The IC50S are calculated based on inhibition of enzyme activity in the presence of increasing concentrations of compounds.
On the technique in general: ADP-Glo first removes unused ATP, then detects ADP through luciferase.

In test [2] the target is T2, Full length DGKζ (in-house protein M1-V929) (Homo sapiens, UniProt Q13574).
T2 construct: His (N); TEV site (N); made in house; host or cells: Sf9 insect cells (Bac-to-Bac baculovirus)
Kind of test: Biochemical DGK IC50 assay (ADP-Glo, lipid micelle substrate), DGKζ. The settings on record: 1 hour preincubation, 1 hour reaction, room temperature. Here is the method:
as §1, §2
Human His-TEV-DGK-zeta-pFastBac1 and human baculovirus samples was generated using the Bac- to -Bac baculovirus expression system (Invitrogen) according to the manufacturer's protocol. The DNA used for expression of DGK-zeta, have SEQ ID Nos: 1. Baculovirus amplification was achieved using infected SF9 cells at 1:2000 virus/cells ratios, and grown for 96 hours at 27° C. post-transfected.
The expression scaled up for each protein was carried out in the […] from CORNING. 4 L of 3×10^6 cells/mL Sf9 cells (Expression System, Invitrogen) grown in SF900™ II SFM insect medium (Expression System) was infected with virus stock at 1:200 virus/cells ratio, and grown for 48 hours at 27° C. post-transfection. The infected cell culture was harvested by centrifugation at 6000 rpm for 15 min 4° C. in a SORVALL LYNX6000 centrifuge. The cell pellets were stored at −80° C.
Full length human DGKζ produced as described above, was purified from Sf9 baculovirus-infected insect cell paste. The cells were lysed using sonication method, and the lysates were clarified by centrifugation.

T1 sequence (P23743 whole entry): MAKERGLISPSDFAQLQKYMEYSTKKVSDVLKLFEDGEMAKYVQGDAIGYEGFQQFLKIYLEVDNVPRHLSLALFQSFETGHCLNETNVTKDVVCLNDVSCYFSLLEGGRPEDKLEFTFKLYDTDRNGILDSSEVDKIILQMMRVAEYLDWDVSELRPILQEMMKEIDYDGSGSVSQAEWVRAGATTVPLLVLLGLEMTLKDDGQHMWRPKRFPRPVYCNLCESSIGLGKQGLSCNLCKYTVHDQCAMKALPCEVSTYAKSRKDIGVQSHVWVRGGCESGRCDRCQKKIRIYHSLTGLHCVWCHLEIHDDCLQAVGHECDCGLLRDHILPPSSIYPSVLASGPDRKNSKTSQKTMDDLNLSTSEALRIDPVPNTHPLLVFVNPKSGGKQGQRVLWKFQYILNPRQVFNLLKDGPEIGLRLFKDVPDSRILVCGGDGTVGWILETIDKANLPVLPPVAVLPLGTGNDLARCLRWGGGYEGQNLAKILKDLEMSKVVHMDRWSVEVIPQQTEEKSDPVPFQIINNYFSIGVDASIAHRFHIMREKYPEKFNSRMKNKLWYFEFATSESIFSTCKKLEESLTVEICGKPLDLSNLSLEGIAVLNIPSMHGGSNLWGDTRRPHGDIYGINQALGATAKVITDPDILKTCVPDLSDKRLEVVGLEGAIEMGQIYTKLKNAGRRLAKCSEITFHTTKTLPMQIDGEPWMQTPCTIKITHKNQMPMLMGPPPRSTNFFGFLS
T2 sequence (Q13574 1-929 isoform Q13574-4): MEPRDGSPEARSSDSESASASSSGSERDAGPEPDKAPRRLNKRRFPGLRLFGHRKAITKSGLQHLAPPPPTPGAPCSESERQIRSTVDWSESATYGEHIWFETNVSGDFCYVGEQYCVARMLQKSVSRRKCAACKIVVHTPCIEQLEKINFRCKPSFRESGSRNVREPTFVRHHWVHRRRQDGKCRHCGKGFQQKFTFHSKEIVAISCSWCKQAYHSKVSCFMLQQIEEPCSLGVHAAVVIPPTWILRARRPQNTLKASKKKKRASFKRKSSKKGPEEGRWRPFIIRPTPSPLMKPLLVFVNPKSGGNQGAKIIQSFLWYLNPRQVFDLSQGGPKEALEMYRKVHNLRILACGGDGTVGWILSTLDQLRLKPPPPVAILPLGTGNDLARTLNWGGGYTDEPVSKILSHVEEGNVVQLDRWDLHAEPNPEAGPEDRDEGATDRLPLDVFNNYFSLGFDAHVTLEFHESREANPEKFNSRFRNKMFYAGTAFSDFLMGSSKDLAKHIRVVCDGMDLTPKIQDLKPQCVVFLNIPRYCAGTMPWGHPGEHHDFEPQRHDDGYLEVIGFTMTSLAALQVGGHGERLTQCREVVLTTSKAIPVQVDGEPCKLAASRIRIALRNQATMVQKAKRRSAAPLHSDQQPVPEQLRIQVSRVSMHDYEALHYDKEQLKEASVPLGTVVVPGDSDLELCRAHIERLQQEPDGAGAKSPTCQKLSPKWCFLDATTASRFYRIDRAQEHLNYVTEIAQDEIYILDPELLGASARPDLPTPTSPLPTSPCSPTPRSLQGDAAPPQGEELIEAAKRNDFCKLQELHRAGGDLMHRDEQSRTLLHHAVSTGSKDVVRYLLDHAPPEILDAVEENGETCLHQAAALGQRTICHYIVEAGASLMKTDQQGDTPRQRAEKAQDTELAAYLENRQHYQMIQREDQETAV

For `CCn1c(CC#N)nc2c(N3C[C@@H](C)N(C(C)c4ccc5c(c4)OC(F)(F)CO5)C[C@@H]3C)nc(=O)n(C)c21` (mixture of isomers) [Compound A80, 2-(6-((2S,5R)-4-(1-(3,3-difluoro-2,3-dihydrobenzo[b][1,4]dioxin-6-yl)ethyl)-2,5-dimethylpiperazin-1-yl)-9-ethyl-3-methyl-2-oxo-3,9-dihydro-2H-purin-8-yl)acetonitrile], the pIC50 in test [1] is 4.02; in test [2] it was 7.51.

In the case of `CCn1c(CC#N)nc2c(N3C[C@@H](C)N(C(=O)c4ccc5c(n4)C(C)(C)CO5)C[C@@H]3C)nc(=O)n(C)c21` [Compound A182, 2-(6-((2S,5R)-4-(3,3-dimethyl-2,3-dihydrofuro[3,2-b]pyridine-5-carbonyl)-2,5-dimethylpiperazin-1-yl)-9-ethyl-3-methyl-2-oxo-3,9-dihydro-2H-purin-8-yl)acetonitrile], the negative-log IC50 (pIC50) was under 3.82 in test [1] and 6.30 in test [2].

With `Cc1cnc2ccc(C(C)N3C[C@H](C)N(c4nc(=O)n(C)c5c4nc(CC#N)n5C)C[C@H]3C)cc2n1` (stereo partly drawn) [Compound A49, 2-(6-((2S,5R)-2,5-dimethyl-4-(1-(3-methylquinoxalin-6-yl)ethyl)piperazin-1-yl)-3,9-dimethyl-2-oxo-3,9-dihydro-2H-purin-8-yl)acetonitrile], the figures for the negative logarithm of the IC50 (pIC50) in test [1] and in test [2] were 3.91 and 7.46, respectively.

`CCn1c(CC#N)nc2c(N3C[C@@H](C)N(C(C)c4ccc5c(n4)C(F)(F)CCO5)C[C@@H]3C)nc(=O)n(C)c21` (stereo partly drawn) [Compound A102, 2-(6-((2S,5R)-4-(1-(4,4-difluoro-3,4-dihydro-2H-pyrano[3,2-b]pyridin-6-yl)ethyl)-2,5-dimethylpiperazin-1-yl)-9-ethyl-3-methyl-2-oxo-3,9-dihydro-2H-purin-8-yl)acetonitrile]: the pIC50 is under 3.82 in test [1] and 7.43 in test [2].

As to `CCn1c(CC#N)nc2c(N3C[C@@H](C)N(C(C)c4cccc(N5CCOCC5)c4)C[C@@H]3C)nc(=O)n(C)c21` (stereo partly drawn) [Compound A141, 2-(6-((2S,5R)-2,5-dimethyl-4-(1-(3-morpholinophenyl)ethyl)piperazin-1-yl)-9-ethyl-3-methyl-2-oxo-3,9-dihydro-2H-purin-8-yl)acetonitrile], the negative logarithm of the IC50 (pIC50) in test [1] is under 3.82; in test [2], 5.89.

For `CCn1c(CC#N)nc2c(N3C[C@@H](C)N(C(C)c4ccc5c(n4)OC(C)(C)CO5)C[C@@H]3C)nc(=O)n(C)c21` (single isomer, unassigned) [Compound A74b], the pIC50 in test [1] was under 3.82; in test [2], 5.31.

As to `COC[C@H]1CN(C(C)c2ccc3c(c2)OCCO3)[C@H](C)CN1c1nc(=O)n(C)c2c1nc(CC#N)n2C` (single isomer, unassigned) [Compound A11b], the pIC50 in test [1] is 4.92; in test [2], 7.85.

As to `Cc1cnc2ccc(C(C)N3C[C@H](C)N(c4c(F)c(=O)n(C)c5c4nc(CC#N)n5C)C[C@H]3C)cc2n1` (single isomer, unassigned) [Compound A23b], the pIC50 in test [1] was 4.79; in test [2], 7.03.

For the compound `CC[C@H]1CN(C(C)c2ccc(F)cc2C(F)(F)F)[C@H](CC)CN1c1nc(=O)n(C)c2c1nc(CC#N)n2C` (single isomer, unassigned) [Compound A34b], the results for the pIC50 in test [1] and in test [2] were under 5.00 and 8.05, respectively.

On to `CCn1c(CC#N)nc2c(N3C[C@@H](C)N(C(C)c4nc5c(cc4F)OCC(C)(C)O5)C[C@@H]3C)nc(=O)n(C)c21` (mixture of isomers) [Compound A161, 2-(9-ethyl-6-((2S,5R)-4-(1-(7-fluoro-3,3-dimethyl-2,3-dihydro-[1,4]dioxino[2,3-b]pyridin-6-yl)ethyl)-2,5-dimethylpiperazin-1-yl)-3-methyl-2-oxo-3,9-dihydro-2H-purin-8-yl)acetonitrile], for which the negative logarithm of the IC50 (pIC50) is under 3.82 in test [1] and 7.09 in test [2].

In the case of `CCn1c(CC#N)nc2c(N3C[C@@H](C)N(C(C)c4cc(F)c5c(c4)OC(C)(C)O5)C[C@@H]3C)nc(=O)n(C)c21` (mixture of isomers) [Compound A173, 2-(9-ethyl-6-((2S,5R)-4-(1-(7-fluoro-2,2-dimethylbenzo[d][1,3]dioxol-5-yl)ethyl)-2,5-dimethylpiperazin-1-yl)-3-methyl-2-oxo-3,9-dihydro-2H-purin-8-yl)acetonitrile], the figures for the negative logarithm of the IC50 (pIC50) in test [1] and in test [2] were 3.84 and 7.36, respectively.

Consider `CCn1c(CC#N)nc2c(N3C[C@@H](C)N(C(C)c4ccc5c(=O)cc(C)n(C)c5c4)C[C@@H]3C)nc(=O)n(C)c21` (stereo partly drawn) [Compound A155, 2-(6-((2S,5R)-4-(1-(1,2-dimethyl-4-oxo-1,4-dihydroquinolin-7-yl)ethyl)-2,5-dimethylpiperazin-1-yl)-9-ethyl-3-methyl-2-oxo-3,9-dihydro-2H-purin-8-yl)acetonitrile], for which the negative-log IC50 (pIC50) in test [1] was 4.00; in test [2], 5.92.

Consider `CCn1c(CC#N)nc2c(N3C[C@@H](C)N(C(C)c4ccc5nc(C)sc5c4)C[C@@H]3C)nc(=O)n(C)c21` (single isomer, unassigned) [Compound A56a], for which the negative-log IC50 (pIC50) is 3.97 in test [1] and 6.09 in test [2].

As for `CCn1c(CC#N)nc2c(N3C[C@@H](C)N(C(C)c4ccnc(OC(C)C)c4)C[C@@H]3C)nc(=O)n(C)c21` (stereo partly drawn) [Compound A124, 2-(9-ethyl-6-((2S,5R)-4-(1-(2-isopropoxypyridin-4-yl)ethyl)-2,5-dimethylpiperazin-1-yl)-3-methyl-2-oxo-3,9-dihydro-2H-purin-8-yl)acetonitrile], the figures for the pIC50 in test [1] and in test [2] were 3.95 and 7.32, respectively.

With `CC(c1nc2c(cc1F)OCC(C)(C)O2)N1C[C@H](C)N(c2nc(=O)n(C)c3c2nc(CC#N)n3C)C[C@H]1C` (stereo partly drawn) [Compound A162, 2-(6-((2S,5R)-4-(1-(7-fluoro-3,3-dimethyl-2,3-dihydro-[1,4]dioxino[2,3-b]pyridin-6-yl)ethyl)-2,5-dimethylpiperazin-1-yl)-3,9-dimethyl-2-oxo-3,9-dihydro-2H-purin-8-yl)acetonitrile], the values for the negative logarithm of the IC50 (pIC50) in test [1] and in test [2] were 4.22 and 7.48, respectively.

On to `CCn1c(CC#N)nc2c(N3C[C@@H](C)N(C(C)c4ccc5c(c4)OC(C)(C)CO5)C[C@@H]3C)nc(=O)n(C)c21` (single isomer, unassigned) [Compound A60a], for which the pIC50 was 4.14 in test [1] and 8.48 in test [2].

As for `Cc1cnc2ccc(C(C)N3C[C@H](C)N(c4nc(=O)n(C)c5c4nc(CC#N)n5C)C[C@H]3C)cc2n1` (single isomer, unassigned) [Compound A49b], the negative-log IC50 (pIC50) in test [1] is under 3.82; in test [2], 6.40.

On to `CCn1c(CC#N)nc2c(N3C[C@@H](C)N(C(C)c4cc5c(cc4Cl)OC(C)(C)O5)C[C@@H]3C)nc(=O)n(C)c21` (stereo partly drawn) [Compound A170, 2-(6-((2S,5R)-4-(1-(6-chloro-2,2-dimethylbenzo[d][1,3]dioxol-5-yl)ethyl)-2,5-dimethylpiperazin-1-yl)-9-ethyl-3-methyl-2-oxo-3,9-dihydro-2H-purin-8-yl)acetonitrile], for which the negative-log IC50 (pIC50) in test [1] was under 3.82; in test [2], 5.93.

With `Cc1ccc(C(C)N2C[C@H](C)N(c3cc(=O)n(C)c4c3nc(CC#N)n4C)C[C@H]2C)c(C(F)(F)F)c1` (single isomer, unassigned) [Compound A8a], the pIC50 in test [1] was under 5.00; in test [2], 5.83.

Take `CCn1c(CC#N)nc2c(N3C[C@@H](C)N(C(C)c4cc(C)c5c(c4)OC(C)(C)O5)C[C@@H]3C)nc(=O)n(C)c21` (stereo partly drawn) [Compound A177, 2-(6-((2S,5R)-2,5-dimethyl-4-(1-(2,2,7-trimethylbenzo[d][1,3]dioxol-5-yl)ethyl)piperazin-1-yl)-9-ethyl-3-methyl-2-oxo-3,9-dihydro-2H-purin-8-yl)acetonitrile]: the pIC50 was 4.14 in test [1] and 6.77 in test [2].

For `COC[C@H]1CN(C(C)c2ccc3c(c2)OC(C)(C)CO3)[C@H](C)CN1c1nc(=O)n(C)c2c1nc(CC#N)n2C` (single isomer, unassigned) [Compound A12a], the negative logarithm of the IC50 (pIC50) is 4.73 in test [1] and 8.57 in test [2].

The record behind these values is patent publication US20260125378A2, “Heterocyclic Compounds” (BeOne Medicines I GmbH, priority 2023, published 2026).
